In patent US20220169632A1, “METHODS AND MATERIALS FOR INCREASING OR MAINTAINING NICOTINAMIDE MONONUCLEOTIDE ADENYLYL TRANSFERASE-2 (NMNAT2) POLYPEPTIDE LEVELS” (University of Pittsburgh - Of the Commonwealth System of …, priority 2019, published 2022):

system: NMNAT2; assay: NMNAT2-Hibit nano-luciferase activity in stably transfected U87MG cells, various concentrations, 24 hours; type: cell-based; settings: U87MG cells stably transfected with NMNAT2-Hibit luc plasmid
Method: Selected compounds were tested in vitro. U87MG cells were stably transfected with NMNAT2-Hibit luc plasmid. Cells were treated with a test compound at various concentrations for 24 hours. Cells were then collected and assayed for nano-luciferase activity.

Structure (SMILES) | E: compound efficacy for NMNAT2 activation (concentration giving >25% increase in NMNAT2 luciferase activity)
Cc1ccccc1Cn1c(C)c(C)c2cc(C(=O)NCc3cccnc3)ccc21 [BC20208] | ++ (“++” >25% increase in NMNAT2 luciferase activity at >1 μM ≤25 μM.)
Cc1ccccc1Cn1c(C)c(C)c2cc(C(=O)NCc3ccncc3)ccc21 [BC20209] | ++ (“++” >25% increase in NMNAT2 luciferase activity at >1 μM ≤25 μM.)
O=C(CCCc1cn(Cc2ccccc2F)c2ccccc12)NCc1ccccc1F [BC20210] | + (“+” >25% increase in NMNAT2 luciferase activity at >25 μM.)
CCCCN(CC)Cc1ccc(CNC(=O)CCCc2cn(Cc3ccccc3F)c3ccccc23)o1 [BC20211] | +++ (“+++” >25% increase in NMNAT2 luciferase activity at ≤1 μM.)
CCCCN(CC)Cc1ccc(CNC(=O)CCCc2cn(Cc3cccc(F)c3)c3ccccc23)o1 [BC20212] | +++ (“+++” >25% increase in NMNAT2 luciferase activity at ≤1 μM.)
COc1ccccc1CNC(=O)CCCc1cn(Cc2cccc(C)c2)c2ccccc12 [BC20213] | ++ (“++” >25% increase in NMNAT2 luciferase activity at >1 μM ≤25 μM.)
CC(Cc1ccco1)NC(=O)Cn1cc(C(=O)c2ccc(Cl)cc2)c2ccccc21 (centres unmarked) [BC20214] | + (“+” >25% increase in NMNAT2 luciferase activity at >25 μM.)
O=C(Cn1cc(C(=O)c2ccc(Cl)cc2)c2ccccc21)NCCc1ccccc1 [BC20215] | ++ (“++” >25% increase in NMNAT2 luciferase activity at >1 μM ≤25 μM.)
O=C(Cn1cc(C(=O)c2ccc(Cl)cc2)c2ccccc21)NCc1ccncc1 [BC20216] | ++ (“++” >25% increase in NMNAT2 luciferase activity at >1 μM ≤25 μM.)
Cc1ccc(C)c(Cn2c3c(c4ccccc42)CC(C(=O)NCc2ccccc2F)CC3)c1 (centres unmarked) [BC20217] | + (“+” >25% increase in NMNAT2 luciferase activity at >25 μM.)
Cc1ccc(C)c(Cn2c3c(c4ccccc42)CC(C(=O)NCCc2ccccc2)CC3)c1 (centres unmarked) [BC20218] | + (“+” >25% increase in NMNAT2 luciferase activity at >25 μM.)
CCCCN(CC)Cc1ccc(CNC(=O)C2CCc3c(c4ccccc4n3Cc3cc(C)ccc3C)C2)o1 (centres unmarked) [BC20219] | ++ (“++” >25% increase in NMNAT2 luciferase activity at >1 μM ≤25 μM.)
O=C(NCc1ccco1)C1CCc2c(c3ccccc3n2Cc2cccc(F)c2)C1 (centres unmarked) [BC20220] | ++ (“++” >25% increase in NMNAT2 luciferase activity at >1 μM ≤25 μM.)
Cc1ccc(CNC(=O)C2CCc3c(c4ccccc4n3Cc3cccc(F)c3)C2)o1 (centres unmarked) [BC20221] | + (“+” >25% increase in NMNAT2 luciferase activity at >25 μM.)
O=C(NCc1cccc(F)c1)C1CCc2c(c3ccccc3n2Cc2cccc(F)c2)C1 (centres unmarked) [BC20222] | + (“+” >25% increase in NMNAT2 luciferase activity at >25 μM.)
Cc1ccccc1CNC(=O)C1CCc2c(c3ccccc3n2Cc2cccc(F)c2)C1 (centres unmarked) [BC20223] | + (“+” >25% increase in NMNAT2 luciferase activity at >25 μM.)
Cc1cccc(CNC(=O)C2CCc3c(c4ccccc4n3Cc3cccc(F)c3)C2)c1 (centres unmarked) [BC20224] | + (“+” >25% increase in NMNAT2 luciferase activity at >25 μM.)
COc1ccccc1CNC(=O)C1CCc2c(c3ccccc3n2Cc2cccc(F)c2)C1 (centres unmarked) [BC20225] | + (“+” >25% increase in NMNAT2 luciferase activity at >25 μM.)
COc1cccc(CNC(=O)C2CCc3c(c4ccccc4n3Cc3cccc(F)c3)C2)c1 (centres unmarked) [BC20226] | + (“+” >25% increase in NMNAT2 luciferase activity at >25 μM.)
O=C(NCCc1ccccc1)C1CCc2c(c3ccccc3n2Cc2cccc(F)c2)C1 (centres unmarked) [BC20227] | ++ (“++” >25% increase in NMNAT2 luciferase activity at >1 μM ≤25 μM.)
O=C(NCc1ccncc1)C1CCc2c(c3ccccc3n2Cc2cccc(F)c2)C1 (centres unmarked) [BC20228] | ++ (“++” >25% increase in NMNAT2 luciferase activity at >1 μM ≤25 μM.)
Cc1cccc(NC(=O)C2CCc3c(c4ccccc4n3Cc3cccc(F)c3)C2)c1C (centres unmarked) [BC20229] | + (“+” >25% increase in NMNAT2 luciferase activity at >25 μM.)
Cc1ccc(Cn2cc(C3CCN(Cc4ccccc4F)C(=O)C3)c3ccccc32)cc1 (centres unmarked) [BC20230] | ++ (“++” >25% increase in NMNAT2 luciferase activity at >1 μM ≤25 μM.)
Cc1ccc(Cn2cc(C3CCN(Cc4cccc(F)c4)C(=O)C3)c3ccccc32)cc1 (centres unmarked) [BC20231] | ++ (“++” >25% increase in NMNAT2 luciferase activity at >1 μM ≤25 μM.)

Structure (SMILES) | E: compound efficacy for NMNAT2 activation (concentration giving >25% increase in NMNAT2 luciferase activity)
Cc1ccc(Cn2cc(C3CCN(Cc4ccccc4C)C(=O)C3)c3ccccc32)cc1 (centres unmarked) [BC20232] | + (“+” >25% increase in NMNAT2 luciferase activity at >25 μM.)
Cc1ccc(Cn2cc(C3CCN(Cc4cccc(C)c4)C(=O)C3)c3ccccc32)cc1 (centres unmarked) [BC20233] | ++ (“++” >25% increase in NMNAT2 luciferase activity at >1 μM ≤25 μM.)
CCOC(=O)Cn1cc(C2=CC(=O)NCC2)c2ccccc21 [BC20234] | ++ (“++” >25% increase in NMNAT2 luciferase activity at >1 μM ≤25 μM.)
CCOC(=O)Cn1cc(C2CCNC(=O)C2)c2ccccc21 (centres unmarked) [BC20235] | ++ (“++” >25% increase in NMNAT2 luciferase activity at >1 μM ≤25 μM.)
Cc1ccc(CNC(=O)C2CCc3c(c4ccccc4n3CC(=O)NCc3ccco3)C2)o1 (centres unmarked) [BC20236] | ++ (“++” >25% increase in NMNAT2 luciferase activity at >1 μM ≤25 μM.)
O=C(Cn1c2c(c3ccccc31)CC(C(=O)NCC1CCCO1)CC2)NCc1ccco1 (centres unmarked) [BC20237] | ++ (“++” >25% increase in NMNAT2 luciferase activity at >1 μM ≤25 μM.)
Cc1ccccc1CNC(=O)C1CCc2c(c3ccccc3n2CC(=O)NCc2ccco2)C1 (centres unmarked) [BC20238] | ++ (“++” >25% increase in NMNAT2 luciferase activity at >1 μM ≤25 μM.)
Cc1cccc(CNC(=O)C2CCc3c(c4ccccc4n3CC(=O)NCc3ccco3)C2)c1 (centres unmarked) [BC20239] | ++ (“++” >25% increase in NMNAT2 luciferase activity at >1 μM ≤25 μM.)
COc1ccccc1CNC(=O)C1CCc2c(c3ccccc3n2CC(=O)NCc2ccco2)C1 (centres unmarked) [BC20240] | ++ (“++” >25% increase in NMNAT2 luciferase activity at >1 μM ≤25 μM.)
COc1cccc(CNC(=O)C2CCc3c(c4ccccc4n3CC(=O)NCc3ccco3)C2)c1 (centres unmarked) [BC20241] | ++ (“++” >25% increase in NMNAT2 luciferase activity at >1 μM ≤25 μM.)
O=C(Cn1c2c(c3ccccc31)CC(C(=O)NCc1cccnc1)CC2)NCc1ccco1 (centres unmarked) [BC20242] | + (“+” >25% increase in NMNAT2 luciferase activity at >25 μM.)
Cc1ccc(C)c(Cn2c3c(c4ccccc42)CN(C(=O)NCc2ccco2)CC3)c1 [BC20243] | +++ (“+++” >25% increase in NMNAT2 luciferase activity at ≤1 μM.)
Cc1c(C)n(Cc2ccccc2F)c2ccc(C(=O)NC(C)Cc3ccco3)cc12 (centres unmarked) [BC20244] | + (“+” >25% increase in NMNAT2 luciferase activity at >25 μM.)
Cc1c(C)n(Cc2ccccc2F)c2ccc(C(=O)NCCc3ccccc3)cc12 [BC20245] | ++ (“++” >25% increase in NMNAT2 luciferase activity at >1 μM ≤25 μM.)
Cc1cccc(NC(=O)c2ccc3c(c2)c(C)c(C)n3Cc2ccccc2F)c1C [BC20246] | ++ (“++” >25% increase in NMNAT2 luciferase activity at >1 μM ≤25 μM.)
Cc1c(C)n(Cc2ccccc2F)c2ccc(C(=O)N3CCc4occc4C3)cc12 [BC20247] | + (“+” >25% increase in NMNAT2 luciferase activity at >25 μM.)
Cc1c(C)n(Cc2cccc(F)c2)c2ccc(C(=O)NCCc3ccccc3)cc12 [BC20248] | ++ (“++” >25% increase in NMNAT2 luciferase activity at >1 μM ≤25 μM.)
Cc1cccc(NC(=O)c2ccc3c(c2)c(C)c(C)n3Cc2cccc(F)c2)c1C [BC20249] | +++ (“+++” >25% increase in NMNAT2 luciferase activity at ≤1 μM.)
Cc1c(C)n(Cc2cccc(F)c2)c2ccc(C(=O)N3CCc4occc4C3)cc12 [BC20250] | ++ (“++” >25% increase in NMNAT2 luciferase activity at >1 μM ≤25 μM.)
Cc1ccccc1Cn1c(C)c(C)c2cc(C(=O)NCCc3ccccc3)ccc21 [BC20251] | ++ (“++” >25% increase in NMNAT2 luciferase activity at >1 μM ≤25 μM.)
Cc1ccc(C)c(Cn2c3c(c4ccccc42)CN(C(=O)NCC2CCCO2)CC3)c1 (centres unmarked) [BC20252] | + (“+” >25% increase in NMNAT2 luciferase activity at >25 μM.)
Cc1ccc(C)c(Cn2c3c(c4ccccc42)CN(C(=O)NCc2cccc(F)c2)CC3)c1 [BC20253] | + (“+” >25% increase in NMNAT2 luciferase activity at >25 μM.)
Cc1ccc(C)c(Cn2c3c(c4ccccc42)CN(C(=O)NCCc2ccccc2)CC3)c1 [BC20254] | ++ (“++” >25% increase in NMNAT2 luciferase activity at >1 μM ≤25 μM.)
